# Publication PMC10038056, “Synthesis, biological evaluation and theoretical studies of (E)-1-(4-sulfamoyl-phenylethyl)-3-arylidene-5-aryl-1H-pyrrol-2(3H)-ones as human carbonic anhydrase inhibitors” (Journal of Enzyme Inhibition and Medicinal Chemistry, 2023)
# Experiments:
# hCA I = hCA I (Homo sapiens, UniProt P00915); experiment: Stopped-flow CO2 hydrase assay, hCA I
# Description: (§1) (AAZ), a commonly used sulphonamide inhibitor was used for comparing the inhibition data. The Inhibition effects of these compounds on enzyme activities were evaluated under in-vitro conditions. The CA catalysed CO2 hydration activity was measured using an Applied Photophysics stopped-flow instrument. […] In the same way, the uncatalyzed rates were analysed and deducted from the total measured rates. […] The inhibitor and enzyme solutions were preincubated at room temperature for 15 min prior to the experiment to promote the formation of the E-I complex. By employing nonlinear least-squares methods using PRISM 3 and the Cheng-Prusoff equation, the inhibition constants were determined, as was previously reported[18–20]^,[21] and indicate the average of at least three separate measurements that fall between the range of 5 and 10%.
# hCA XII = hCA XII (Homo sapiens, UniProt O43570); experiment: Stopped-flow CO2 hydrase assay, hCA XII
# Description: as §1
# hCA IX = hCA IX (Homo sapiens, UniProt Q16790); experiment: Stopped-flow CO2 hydrase assay, hCA IX
# Description: as §1
# hCA II = hCA II (Homo sapiens, UniProt P00918); experiment: Stopped-flow CO2 hydrase assay, hCA II
# Description: as §1
# [1] = stopped flow, mean from 3 assays, errors 5–10%
# Sequence of hCA I (P00915 whole entry): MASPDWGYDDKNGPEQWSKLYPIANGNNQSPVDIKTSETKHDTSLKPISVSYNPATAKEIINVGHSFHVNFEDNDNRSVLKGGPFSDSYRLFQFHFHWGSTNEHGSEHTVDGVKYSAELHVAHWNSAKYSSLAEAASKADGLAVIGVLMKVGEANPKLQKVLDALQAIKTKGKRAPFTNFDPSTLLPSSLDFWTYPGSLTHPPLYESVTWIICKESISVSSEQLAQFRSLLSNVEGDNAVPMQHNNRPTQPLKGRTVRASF
# Sequence of hCA XII (O43570 25-354): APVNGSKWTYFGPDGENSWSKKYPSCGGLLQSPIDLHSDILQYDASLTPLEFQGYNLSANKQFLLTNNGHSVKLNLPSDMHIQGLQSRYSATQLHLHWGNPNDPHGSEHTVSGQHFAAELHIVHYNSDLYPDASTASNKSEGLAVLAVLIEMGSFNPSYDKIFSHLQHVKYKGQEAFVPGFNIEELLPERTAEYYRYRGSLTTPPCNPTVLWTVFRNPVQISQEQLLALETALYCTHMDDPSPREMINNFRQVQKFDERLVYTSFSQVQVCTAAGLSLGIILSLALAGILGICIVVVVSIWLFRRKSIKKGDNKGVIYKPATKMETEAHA
smiles,measurement,setting,value
"CCc1ccc(C2=C/C(=C\c3ccc(Cl)cc3)C(=O)N2CCc2ccc(S(N)(=O)=O)cc2)cc1 [Compound 3k, (E)-4-(2-(3-(4-chlorobenzylidene)-5-(4-ethylphenyl)-2-oxo-2,3-dihydro-1H-pyrrol-1-yl)ethyl)benzenesulphonamide]",Ki,hCA I; [1],5.93 µM
same,melting point,,186 to 187 °C
same,Ki,hCA XII; [1],0.0911 µM
same,Ki,hCA IX,102 nM
same,Ki,hCA II,1620 nM
"NS(=O)(=O)c1ccc(CCN2C(=O)/C(=C/c3ccc(Cl)cc3)C=C2c2ccccc2)cc1 [Compound 3c, (E)-4-(2-(3-(4-chlorobenzylidene)-2-oxo-5-phenyl-2,3-dihydro-1H-pyrrol-1-yl)ethyl)benzenesulphonamide]",Ki,hCA I; [1],3.25 µM
same,melting point,,192 to 193 °C
same,Ki,hCA XII; [1],0.0765 µM
same,Ki,hCA IX,108 nM
same,Ki,hCA II,718 nM
"NS(=O)(=O)c1ccc(CCN2C(=O)/C(=C/c3ccccc3)C=C2c2ccc(Cl)cc2)cc1 [Compound 3m, (E)-4-(2-(3-benzylidene-5-(4-chlorophenyl)-2-oxo-2,3-dihydro-1H-pyrrol-1-yl)ethyl)benzenesulphonamide]",Ki,hCA I; [1],2.26 µM
same,melting point,,189 to 190 °C
same,Ki,hCA XII; [1],0.0617 µM
same,Ki,hCA IX,54.6 nM
same,Ki,hCA II,780 nM
"CCc1ccc(C2=C/C(=C\c3ccc(F)cc3)C(=O)N2CCc2ccc(S(N)(=O)=O)cc2)cc1 [Compound 3j, (E)-4-(2-(5-(4-ethylphenyl)-3-(4-fluorobenzylidene)-2-oxo-2,3-dihydro-1H-pyrrol-1-yl)ethyl)benzenesulphonamide]",Ki,hCA I; [1],0.836 µM
same,melting point,,185 to 186 °C
same,Ki,hCA XII; [1],0.0662 µM
same,Ki,hCA IX,71.4 nM
same,Ki,hCA II,296 nM
"CC(C)(C)c1ccc(C2=C/C(=C\c3ccccc3)C(=O)N2CCc2ccc(S(N)(=O)=O)cc2)cc1 [Compound 3q, (E)-4-(2-(3-benzylidene-5-(4-(tert-butyl)phenyl)-2-oxo-2,3-dihydro-1H-pyrrol-1-yl)ethyl)benzenesulphonamide]",Ki,hCA I; in µM,8.5 µM
same,Ki,hCA I; [1],8.5 µM
same,melting point,,183 to 184 °C
same,Ki,hCA XII; [1],0.396 µM
same,Ki,hCA IX,468 nM
same,Ki,hCA II,1650 nM
"NS(=O)(=O)c1ccc(CCN2C(=O)/C(=C/c3ccc(Br)cc3)C=C2c2ccccc2)cc1 [Compound 3d, (E)-4-(2-(3-(4-bromobenzylidene)-2-oxo-5-phenyl-2,3-dihydro-1H-pyrrol-1-yl)ethyl)benzenesulphonamide]",Ki,hCA I; [1],4.25 µM
same,melting point,,214 to 215 °C
same,Ki,hCA XII; [1],0.0898 µM
same,Ki,hCA IX,112 nM
same,Ki,hCA II,1430 nM
"NS(=O)(=O)c1ccc(CCN2C(=O)/C(=C/c3ccc(F)cc3)C=C2c2ccc(Cl)cc2)cc1 [Compound 3n, (E)-4-(2-(5-(4-chlorophenyl)-3-(4-fluorobenzylidene)-2-oxo-2,3-dihydro-1H-pyrrol-1-yl)ethyl)benzenesulphonamide]",Ki,hCA I; [1],1.42 µM
same,melting point,,159 to 160 °C
same,Ki,hCA XII; [1],0.0391 µM
same,Ki,hCA IX,41.3 nM
same,Ki,hCA II,466 nM
"Cc1ccc(C2=C/C(=C\c3ccccc3)C(=O)N2CCc2ccc(S(N)(=O)=O)cc2)cc1 [Compound 3e, (E)-4-(2-(3-benzylidene-2-oxo-5-(p-tolyl)-2,3-dihydro-1H-pyrrol-1-yl)ethyl)benzenesulphonamide]",Ki,hCA I; [1],3.2 µM
same,melting point,,189 to 190 °C
same,Ki,hCA XII; [1],0.0584 µM
same,Ki,hCA IX,117 nM
same,Ki,hCA II,471 nM
"NS(=O)(=O)c1ccc(CCN2C(=O)/C(=C/c3ccccc3)C=C2c2ccccc2)cc1 [Compound 3a, (E)-4-(2-(3-benzylidene-2-oxo-5-phenyl-2,3-dihydro-1H-pyrrol-1-yl)ethyl) benzenesulphonamide]",Ki,hCA I; [1],0.634 µM
same,melting point,,167 to 168 °C
same,Ki,hCA XII; [1],0.0621 µM
same,Ki,hCA IX,93.8 nM
same,Ki,hCA II,368 nM
"Cc1ccc(C2=C/C(=C\c3ccc(F)cc3)C(=O)N2CCc2ccc(S(N)(=O)=O)cc2)cc1 [Compound 3f, (E)-4-(2-(3-(4-fluorobenzylidene)-2-oxo-5-(p-tolyl)-2,3-dihydro-1H-pyrrol-1-yl)ethyl)benzenesulphonamide]",Ki,hCA I; [1],2.53 µM
same,melting point,,196 to 197 °C
same,Ki,hCA XII; [1],0.0427 µM
same,Ki,hCA IX,103 nM
same,Ki,hCA II,147 nM
"NS(=O)(=O)c1ccc(CCN2C(=O)/C(=C/c3ccc(Br)cc3)C=C2c2ccc(Cl)cc2)cc1 [Compound 3p, (E)-4-(2-(3-(4-bromobenzylidene)-5-(4-chlorophenyl)-2-oxo-2,3-dihydro-1H-pyrrol-1-yl)ethyl)benzenesulphonamide]",Ki,hCA I; [1],5.87 µM
same,melting point,,176 to 177 °C
same,Ki,hCA XII; [1],0.0854 µM
same,Ki,hCA IX,74.3 nM
same,Ki,hCA II,3850 nM
"CC(C)(C)c1ccc(C2=C/C(=C\c3ccc(F)cc3)C(=O)N2CCc2ccc(S(N)(=O)=O)cc2)cc1 [Compound 3r, (E)-4-(2-(5-(4-(tert-butyl)phenyl)-3-(4-fluorobenzylidene)-2-oxo-2,3-dihydro-1H-pyrrol-1-yl)ethyl)benzenesulphonamide]",Ki,hCA I; [1],6 µM
same,melting point,,187 to 188 °C
same,Ki,hCA XII; [1],0.356 µM
same,Ki,hCA IX,418 nM
same,Ki,hCA II,1260 nM
"NS(=O)(=O)c1ccc(CCN2C(=O)/C(=C/c3ccc(F)cc3)C=C2c2ccccc2)cc1 [Compound 3b, (E)-4-(2-(3-(4-fluorobenzylidene)-2-oxo-5-phenyl-2,3-dihydro-1H-pyrrol-1-yl)ethyl)benzenesulphonamide]",Ki,hCA I; [1],0.369 µM
same,melting point,,170 to 171 °C
same,Ki,hCA XII; [1],0.0456 µM
same,Ki,hCA IX,72.7 nM
same,Ki,hCA II,81.4 nM
"Cc1ccc(C2=C/C(=C\c3ccc(Br)cc3)C(=O)N2CCc2ccc(S(N)(=O)=O)cc2)cc1 [Compound 3h, (E)-4-(2-(3-(4-bromobenzylidene)-2-oxo-5-(p-tolyl)-2,3-dihydro-1H-pyrrol-1-yl)ethyl)benzenesulphonamide]",Ki,hCA I; [1],4.19 µM
same,melting point,,233 to 234 °C
same,Ki,hCA XII; [1],0.094 µM
same,Ki,hCA IX,84.2 nM
same,Ki,hCA II,1870 nM
"CC(C)(C)c1ccc(C2=C/C(=C\c3ccc(Br)cc3)C(=O)N2CCc2ccc(S(N)(=O)=O)cc2)cc1 [Compound 3t, (E)-4-(2-(3-(4-bromobenzylidene)-5-(4-(tert-butyl)phenyl)-2-oxo-2,3-dihydro-1H-pyrrol-1-yl)ethyl)benzenesulphonamide]",Ki,hCA I; in µM,9.3 µM
same,Ki,hCA I; [1],9.27 µM
same,melting point,,204 to 205 °C
same,Ki,hCA XII; [1],0.308 µM
same,Ki,hCA IX,391 nM
same,Ki,hCA II,4690 nM
"CCc1ccc(C2=C/C(=C\c3ccccc3)C(=O)N2CCc2ccc(S(N)(=O)=O)cc2)cc1 [Compound 3i, (E)-4-(2-(3-benzylidene-5-(4-ethylphenyl)-2-oxo-2,3-dihydro-1H-pyrrol-1-yl)ethyl)benzenesulphonamide]",Ki,hCA I; [1],1.79 µM
same,melting point,,183 to 184 °C
same,Ki,hCA XII; [1],0.0839 µM
same,Ki,hCA IX,78.3 nM
same,Ki,hCA II,901 nM
"NS(=O)(=O)c1ccc(CCN2C(=O)/C(=C/c3ccc(Cl)cc3)C=C2c2ccc(Cl)cc2)cc1 [Compound 3o, (E)-4-(2-(3-(4-chlorobenzylidene)-5-(4-chlorophenyl)-2-oxo-2,3-dihydro-1H-pyrrol-1-yl)ethyl)benzenesulphonamide]",Ki,hCA I; [1],5.09 µM
same,melting point,,163 to 164 °C
same,Ki,hCA XII; [1],0.0789 µM
same,Ki,hCA IX,68.9 nM
same,Ki,hCA II,1890 nM
"CCc1ccc(C2=C/C(=C\c3ccc(Br)cc3)C(=O)N2CCc2ccc(S(N)(=O)=O)cc2)cc1 [Compound 3l, (E)-4-(2-(3-(4-bromobenzylidene)-5-(4-ethylphenyl)-2-oxo-2,3-dihydro-1H-pyrrol-1-yl)ethyl)benzenesulphonamide]",Ki,hCA I; [1],6.76 µM
same,melting point,,188 to 189 °C
same,Ki,hCA XII; [1],0.0563 µM
same,Ki,hCA IX,77.5 nM
same,Ki,hCA II,3710 nM
"Cc1ccc(C2=C/C(=C\c3ccc(Cl)cc3)C(=O)N2CCc2ccc(S(N)(=O)=O)cc2)cc1 [Compound 3g, (E)-4-(2-(3-(4-chlorobenzylidene)-2-oxo-5-(p-tolyl)-2,3-dihydro-1H-pyrrol-1-yl)ethyl)benzenesulphonamide]",Ki,hCA I; [1],4.39 µM
same,melting point,,224 to 225 °C
same,Ki,hCA XII; [1],0.0734 µM
same,Ki,hCA IX,95.5 nM
same,Ki,hCA II,942 nM
"CC(C)(C)c1ccc(C2=C/C(=C\c3ccc(Cl)cc3)C(=O)N2CCc2ccc(S(N)(=O)=O)cc2)cc1 [Compound 3s, (E)-4-(2-(5-(4-(tert-butyl)phenyl)-3-(4-chlorobenzylidene)-2-oxo-2,3-dihydro-1H-pyrrol-1-yl)ethyl)benzenesulphonamide]",Ki,hCA I; [1],7.93 µM
same,melting point,,196 to 197 °C
same,Ki,hCA XII; in µM,0.34 µM
same,Ki,hCA XII; [1],0.342 µM
same,Ki,hCA IX,432 nM
same,Ki,hCA II,4360 nM
